The source of these data is US6270957A, “Non-Imuunosuppressive cyclosporins and their use in the prevention and treatment of HIV infection” (Wisconsin Alumni Research Foundation, priority 1999, dated 2001).

Square brackets hold non-standard residues; d marks the D form. Side chains are listed from the residue outwards. Peptide text beside a SMILES is read from it. * marks the point of attachment. X2 = CC(C)CN(C[C@@H](O)[C@H](Cc1ccc(OCC(=O)*)cc1)NC(=O)O[C@H]1CCOC1)S(=O)(=O)c1ccc(N)cc1; X1 = NC(=O)C[C@H](NC(=O)OCc1ccccc1)C(=O)N[C@@H](Cc1ccccc1)[C@@H](O)CN1CCC[C@H]1C(=O)*; X3 = CC(C)(C)c1cc(OCC(=O)*)ccc1Sc1c(O)cc(-c2ccccc2)oc1=O; NMeLeu(3R-OH) = CN[C@H](C(=O)O)[C@H](O)C(C)C; NMeL = CN[C@@H](CC(C)C)C(=O)O; NMeV = CN[C@H](C(=O)O)C(C)C; dNMeS = CN[C@H](CO)C(=O)O; Abu = CC[C@H](N)C(=O)O

The target of one series is cyclophilin (Homo sapiens, UniProt P62937). Put plainly: Inhibition of cyclophilin. The series is classed as biochemical. Particulars: read-out: Ki against cyclophilin.
For another series, the target named is T1, HIV protease (Human immunodeficiency virus type 1 group M subtype B, UniProt P04585).
T1 construct: HIV protease is an aspartic protease that cleaves the immature viral protein gag-pol into mature structural proteins and enzymes
Put plainly: Inhibition of HIV protease. The class given is biochemical. Particulars: read-out: Ki against HIV protease.

The next series has as its system HIV-1. Particulars: CEM cells, HIV-1, 6 days, XTT; quadruplicate runs. (Tetrazolium dyes change colour on reduction, which living cells bring about.)
The conditions of series [1]: compared with DMP-323; cited from earlier work.
For another series, the system named is HIV. Particulars: read-out: anti-HIV potency IC90; cited from earlier work.

Sequence of cyclophilin (P62937 whole entry): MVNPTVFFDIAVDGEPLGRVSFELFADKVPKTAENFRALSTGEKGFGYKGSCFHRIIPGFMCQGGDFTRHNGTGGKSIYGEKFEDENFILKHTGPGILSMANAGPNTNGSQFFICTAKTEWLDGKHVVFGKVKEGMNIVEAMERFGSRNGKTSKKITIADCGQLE
Method for HIV-1: The procedure used in the National Cancer Institute's test for agents active against human immunodeficiency virus (HIV) is designed to detect agents acting at any stage of the virus reproductive cycle. The assay basically involves the killing of T4 lymphocytes by HIV. Small amounts of HIV are added to cells, and two cycles of virus reproduction are necessary to obtain the required cell killing. Agents that interact with virions, cells, or virus gene-products to interfere with viral activities will protect cells from cytolysis. The system is automated in several features to accommodate large numbers of candidate agents and is generally designed to detect anti-HIV activity. However, compounds that degenerate or are rapidly metabolized in the culture conditions may not show activity in this screen. All tests are compared with at least one positive (e.g., AZT-treated) control done at the same time under identical conditions.
Candidate agent is dissolved in dimethyl sulfoxide (unless otherwise instructed) then diluted 1:100 in cell culture medium before preparing serial half-log10 dilutions. […]
Individual wells are analyzed spectrophotometrically to quantitate formazan production, and in addition are viewed microscopically for detection of viable cells and confirmation of protective activity. […]

Turning to `CC[C@@H]1NC(=O)[C@H]([C@H](O)C(C)C)N(C)C(=O)[C@H](C(C)C)N(C)C(=O)[C@H](CC(C)C)N(C)C(=O)[C@H](CC(C)C)N(C)C(=O)[C@@H](C)NC(=O)[C@H](CCCCNC(=O)[C@H](Cc2ccccc2)NC(=O)[C@@H](NC(=O)[C@@H]2CCCN2C[C@H](O)[C@H](Cc2ccccc2)NC(=O)[C@H](CC(N)=O)NC(=O)OCc2ccccc2)[C@@H](C)CC)NC(=O)[C@H](CC(C)C)N(C)C(=O)[C@H](C(C)C)NC(=O)[C@H](CC(C)C)N(C)C(=O)[C@@H](CO)N(C)C1=O` [Compound 2.8] (cyclo([Abu][dNMeS][NMeL]V[NMeL]K([Phe-Ile-X1])[dA][NMeL][NMeL][NMeV][NMeLeu(3R-OH)])), the Ki on cyclophilin was 20 nM; at HIV protease it was 1 nM.
In the same order, the values of `CC[C@@H]1NC(=O)[C@H]([C@H](O)C(C)C)N(C)C(=O)[C@H](C(C)C)N(C)C(=O)[C@H](CC(C)C)N(C)C(=O)[C@H](CC(C)C)N(C)C(=O)[C@@H](C)NC(=O)[C@H](CCCCNC(=O)COc2ccc(Sc3c(O)cc(-c4ccccc4)oc3=O)c(C(C)(C)C)c2)NC(=O)[C@H](CC(C)C)N(C)C(=O)[C@H](C(C)C)NC(=O)[C@H](CC(C)C)N(C)C(=O)[C@@H](CO)N(C)C1=O` [Compound 2.9] (cyclo([Abu][dNMeS][NMeL]V[NMeL]K(X3)[dA][NMeL][NMeL][NMeV][NMeLeu(3R-OH)])) are 9.3 nM and 3.4 nM.
With `CC[C@@H]1NC(=O)[C@H]([C@H](O)C(C)C)N(C)C(=O)[C@H](C(C)C)N(C)C(=O)[C@H](CC(C)C)N(C)C(=O)[C@H](CC(C)C)N(C)C(=O)[C@@H](C)NC(=O)[C@H](CCCCNC(=O)COc2ccc(C[C@H](NC(=O)O[C@H]3CCOC3)[C@H](O)CN(CC(C)C)S(=O)(=O)c3ccc(N)cc3)cc2)NC(=O)[C@H](CC(C)C)N(C)C(=O)[C@H](C(C)C)NC(=O)[C@H](CC(C)C)N(C)C(=O)[C@@H](CO)N(C)C1=O` [Compound 2.10] (cyclo([NMeLeu(3R-OH)][Abu][dNMeS][NMeL]V[NMeL]K(X2)[dA][NMeL][NMeL][NMeV])), the Ki on cyclophilin was 6 nM; on HIV protease it was 2.3 nM. In addition, in the series with HIV-1, the “NCI determination of anti-HIV activity” value is recorded as “confirmed active”.
For `Nc1cccc(CN2C(=O)N(Cc3cccc(N)c3)[C@H](Cc3ccccc3)[C@H](O)[C@@H](O)[C@H]2Cc2ccccc2)c1` [DMP-450], in series [1], the plasma concentrations result is reported as “much higher plasma concentrations”.
Turning to `O=C(Nc1nc2ccccc2[nH]1)c1cccc(CN2C(=O)N(Cc3cccc(C(=O)Nc4nc5ccccc5[nH]4)c3)[C@H](Cc3ccccc3)[C@H](O)[C@@H](O)[C@H]2Cc2ccccc2)c1` [SD-146], in the series on HIV, the IC90 is 5.1 nM.

As usually defined, the Ki is the dissociation constant of the complex between target and ligand, obtained from inhibition or displacement. Broadly, the IC90 is the concentration needed for an effect of 90%.
